Where “and” joins values, the source holds several entries; their conditions need not be identical. Identical values can stand only once. Like-named read-outs stand apart in the source and are kept apart here.
Key:
[1] = Comparative bioavailability study, curcumin in plasma by HPLC; type: in vivo, human; conditions: for concentration at 1 hr / concentration at 2 hr / concentration at 4 hr / concentration at 6 hr / concentration at 8 hr / concentration at 24 hr: human, plasma, po, 1 gm; for Mean plasma concentration: listed as Curcumin Powder 95%; for Individual plasma concentration: single oral dose equivalent to 1 gm curcuminoids
Procedure: The bioavailability study was conducted at Amala Cancer Institute, Thrissur, Kerala on a request from the applicant. Twelve healthy subjects were recruited for the purpose of the study. […] The study design chosen was a balanced, open label, two-treatment, two-period, single dose, bioavailability study.
12 Subject were recruited for the study and were asked to avoid consumption of food containing rich turmeric powder or extract for 24 hours preceding each period. […] The following supplements were used for the purpose of the study:
Each of the supplements were administered with 240 ml water in each period.
The study design is open label, two-treatment, two-period, single dose, bioavailability study. […] Subjects were asked to avoid consumption of food containing rich turmeric powder or extract for 24 hours preceding each period. […] There was a washout period of at least 2 weeks between the doses.
Blood was drawn from each subject just prior to dosing and at 1, 2, 4, 6, 8, and 24 hours post-dose. The total blood loss for each subject was approximately 70 ml and there were totally 14 blood samples of 5 ml each time point throughout the study.
The primary efficacy variables were measured in this study were Cmax, AUCO-t and AUCO-∞ and the secondary efficacy variable were as follows Tmax, T½ and Kel. The statistical evaluation was done by Winnonlin Software 5.0.1 version. […] Tmax and T½ were also be recorded and compared for the two products.
Preparation of Sample (Spiked with Standard Solution E): The frozen plasma samples were allowed to attain the room temperature. 1000 μl of the plasma sample was pipetted out and spiked with 100 μl of spiking standard solution E. This solution was vortex for 1 minute and 3.0 ml ethyl acetate (HPLC Grade) was added to the above solutions. The solution was vortex again for 1 minute with the aid of cyclomixer and allowed to settle down at room temperature.
1.5 ml of the upper ethyl acetate layer was pipetted out and evaporated to dryness using vacuum. The dried sample was dissolved in 600 μl of methanol (HPLC Grade) using vortex mixer. This solution was filtered by 0.2 micron membrane filter paper. 100 μl of these filtered solution was injected in HPLC (Waters Alliance System with 2996 PDA detector in isocratic mode). The column used was LiChrospher 100 RP-18 (250×4.6 mm 5 μM particle size) with methanol as the mobile phase and the detection wavelength was 420 nm. To identify and quantized curcuminoids in plasma the chromatographic peaks were compared with standard solution.

[2] = test system: serotonin (5-HT) as well as dopamine levels; conditions: mice; cited from earlier work
[3] = individual subjects, 1 gm curcuminoids oral, listed as Curcumin Extract Powder (min 95% Curcuminoids)

Compound COc1cc(C=CC(=O)CC(=O)C=Cc2ccc(O)c(OC)c2)ccc1O [Curcumin, 1,7-bis(4-hydroxy-3-methoxyphenyl)-1,6-heptadien-3,5-dione] has a concentration at 1 hr ([1]; time 1 hr, 1 gm curcuminoids oral, read-out: Max plasma concentration) of 20.6 ng/mL, a concentration at 1 hr ([1]; time 1 hr, 1 gm curcuminoids oral, read-out: Mean plasma concentration) of 5.46 ng/mL and a concentration at 1 hr ([1]; time 1 hr, 1 gm curcuminoids oral, read-out: Median plasma concentration) of 1.66 ng/mL. For the same compound, the concentration at 1 hr ([1]; time 1 hr, 1 gm curcuminoids oral, read-out: Min plasma concentration) was 0.05 ng/mL, the concentration at 2 hr ([1]; time 2 hr, 1 gm curcuminoids oral, read-out: Geometric Mean plasma concentration) was 13.5 ng/mL and the concentration at 2 hr ([1]; time 2 hr, 1 gm curcuminoids oral, read-out: Max plasma concentration) was 19.8 ng/mL. It also gave a concentration at 2 hr ([1]; time 2 hr, 1 gm curcuminoids oral, read-out: Mean plasma concentration) of 14.4 ng/mL, a concentration at 2 hr ([1]; time 2 hr, 1 gm curcuminoids oral, read-out: Median plasma concentration) of 14.9 ng/mL and a concentration at 2 hr ([1]; time 2 hr, 1 gm curcuminoids oral, read-out: Min plasma concentration) of 8.39 ng/mL. It also gave a concentration at 4 hr ([1]; time 4 hr, 1 gm curcuminoids oral, read-out: Geometric Mean plasma concentration) of 4.89 ng/mL, a concentration at 4 hr ([1]; time 4 hr, 1 gm curcuminoids oral, read-out: Max plasma concentration) of 15.6 ng/mL and a concentration at 4 hr ([1]; time 4 hr, 1 gm curcuminoids oral, read-out: Mean plasma concentration) of 7.07 ng/mL. For the same compound, the concentration at 4 hr ([1]; time 4 hr, 1 gm curcuminoids oral, read-out: Median plasma concentration) was 7.09 ng/mL, the concentration at 4 hr ([1]; time 4 hr, 1 gm curcuminoids oral, read-out: Min plasma concentration) was 0.75 ng/mL and the concentration at 6 hr ([1]; time 6 hr, 1 gm curcuminoids oral, read-out: Geometric Mean plasma concentration) was 3.03 ng/mL. It also gave a concentration at 6 hr ([1]; time 6 hr, 1 gm curcuminoids oral, read-out: Max plasma concentration) of 4.87 ng/mL, a concentration at 6 hr ([1]; time 6 hr, 1 gm curcuminoids oral, read-out: Mean plasma concentration) of 3.23 ng/mL and a concentration at 6 hr ([1]; time 6 hr, 1 gm curcuminoids oral, read-out: Median plasma concentration) of 2.77 ng/mL. The concentration at 6 hr ([1]; time 6 hr, 1 gm curcuminoids oral, read-out: Min plasma concentration) was 2.05 ng/mL, the concentration at 8 hr ([1]; time 8 hr, 1 gm curcuminoids oral, read-out: Geometric Mean plasma concentration) was 6.56 ng/mL and the concentration at 8 hr ([1]; time 8 hr, 1 gm curcuminoids oral, read-out: Max plasma concentration) was 36.1 ng/mL. It also gave a concentration at 8 hr ([1]; time 8 hr, 1 gm curcuminoids oral, read-out: Mean plasma concentration) of 18.6 ng/mL, a concentration at 8 hr ([1]; time 8 hr, 1 gm curcuminoids oral, read-out: Median plasma concentration) of 18.6 ng/mL and a concentration at 8 hr ([1]; time 8 hr, 1 gm curcuminoids oral, read-out: Min plasma concentration) of 1.19 ng/mL. It also gave a concentration at 24 hr ([1]; time 24 hr, 1 gm curcuminoids oral, read-out: Geometric Mean plasma concentration) of 2.23 ng/mL, a concentration at 24 hr ([1]; time 24 hr, 1 gm curcuminoids oral, read-out: Max plasma concentration) of 11.5 ng/mL and a concentration at 24 hr ([1]; time 24 hr, 1 gm curcuminoids oral, read-out: Mean plasma concentration) of 4.27 ng/mL. The concentration at 24 hr ([1]; time 24 hr, 1 gm curcuminoids oral, read-out: Median plasma concentration) was 1.93 ng/mL, the concentration at 24 hr ([1]; time 24 hr, 1 gm curcuminoids oral, read-out: Min plasma concentration) was 0.53 ng/mL and the AUCINF [1, 3] was 87.74 ng·h/mL and 77.46 ng·h/mL. The AUCT [1, 3] was 38.31 ng·h/mL and 53.25 ng·h/mL and 31.24 ng·h/mL and 82.17 ng·h/mL and 175.60 ng·h/mL and 137.89 ng·h/mL and 198.27 ng·h/mL and 73.46 ng·h/mL, the Cmax [1, 3] was 2.48 ng/mL and 7.99 ng/mL and 15.62 ng/mL and 8.39 ng/mL and 9.09 ng/mL and 11.49 ng/mL and 36.11 ng/mL and 14.94 ng/mL and the Thalf [1, 3] was 11.39 h and 5.95 h and 5.21 h. For the same compound, the Tmax [1, 3] was 1.00 h and 4.00 h and 2.00 h and 24.00 h and 8.00 h, the Mean plasma concentration ([1]; time 0 hr (prior to dosing), 1 gm curcuminoids oral) was 0.0000 ng/mL and the Individual plasma concentration ([1]; time 0.00 hr (prior to dosing), individual subjects) was 0.00 ng/mL. The Mean plasma concentration ([1]; time 1 hr, 1 gm curcuminoids oral) was 5.4638 ng/mL, the Individual plasma concentration ([1]; time 1.00 hr, individual subjects, listed as Curcumin Extract Powder 95%) was 2.48 ng/mL and 7.99 ng/mL and 0.84 ng/mL and 0.05 ng/mL and 20.58 ng/mL and 0.85 ng/mL and the Mean plasma concentration ([1]; time 2 hr, 1 gm curcuminoids oral) was 14.3842 ng/mL. The Individual plasma concentration ([1]; time 2.00 hr, individual subjects, listed as Curcumin Extract Powder 95%) was 8.39 ng/mL and 19.82 ng/mL and 14.94 ng/mL, the Mean plasma concentration ([1]; time 4 hr, 1 gm curcuminoids oral) was 7.0711 ng/mL and the Individual plasma concentration ([1]; time 4.00 hr, individual subjects, listed as Curcumin Extract Powder 95%) was 0.75 ng/mL and 4.53 ng/mL and 15.62 ng/mL and 7.09 ng/mL and 7.36 ng/mL. For the same compound, the Mean plasma concentration ([1]; time 6 hr, 1 gm curcuminoids oral) was 3.2316 ng/mL, the Individual plasma concentration ([1]; time 6.00 hr, individual subjects, listed as Curcumin Extract Powder 95%) was 2.05 ng/mL and 4.87 ng/mL and 2.77 ng/mL and the Mean plasma concentration ([1]; time 8 hr, 1 gm curcuminoids oral) was 18.6496 ng/mL. The Individual plasma concentration ([1]; time 8.00 hr, individual subjects, listed as Curcumin Extract Powder 95%) was 1.19 ng/mL and 36.11 ng/mL, the Mean plasma concentration ([1]; time 24 hr, 1 gm curcuminoids oral) was 4.2698 ng/mL and the Individual plasma concentration ([1]; time 24.00 hr, individual subjects, listed as Curcumin Extract Powder 95%) was 2.47 ng/mL and 1.39 ng/mL and 0.65 ng/mL and 9.09 ng/mL and 11.49 ng/mL and 0.53 ng/mL. The “Serotonin (5-HT) and dopamine levels” value [2] was “increases serotonin (5-HT) as well as dopamine levels”.

From patent publication US9259401B2 (priority 2011, dated 2016)
